Patent US20100099698A1, “Compositions for Improving Skin Conditions Comprising Matrine or Its Oxidized Derivatives” (Biospectrum Inc., priority 2007, published 2010)
Where two headings read alike, the source gives them in different places.

Tests used:
B16 mouse melanoma cells [1] = assay: Cytotoxicity at the test concentrations in B16 melanoma cells; format: cell-based; conditions: 10 μM, 100 μM and 500 μM
tyrosinase = target: T1, tyrosinase (Mus musculus, UniProt P11344); assay: Inhibition of intracellular tyrosinase activity in melanoma cells; format: cell-based, Murine; conditions: B16-F1, read-out: Inhibitory rate of intracellular tyrosinase activity (%)
T1 construct: This cell pellets were lysated using lysis buffer, centrifuged at 12,000 rpm for 10 min and the supernatant was collected; endogenous in cells; host or cells: B16 F1 mouse melanoma cells (Korean Cell Line Bank)
T1 sequence (P11344 19-533): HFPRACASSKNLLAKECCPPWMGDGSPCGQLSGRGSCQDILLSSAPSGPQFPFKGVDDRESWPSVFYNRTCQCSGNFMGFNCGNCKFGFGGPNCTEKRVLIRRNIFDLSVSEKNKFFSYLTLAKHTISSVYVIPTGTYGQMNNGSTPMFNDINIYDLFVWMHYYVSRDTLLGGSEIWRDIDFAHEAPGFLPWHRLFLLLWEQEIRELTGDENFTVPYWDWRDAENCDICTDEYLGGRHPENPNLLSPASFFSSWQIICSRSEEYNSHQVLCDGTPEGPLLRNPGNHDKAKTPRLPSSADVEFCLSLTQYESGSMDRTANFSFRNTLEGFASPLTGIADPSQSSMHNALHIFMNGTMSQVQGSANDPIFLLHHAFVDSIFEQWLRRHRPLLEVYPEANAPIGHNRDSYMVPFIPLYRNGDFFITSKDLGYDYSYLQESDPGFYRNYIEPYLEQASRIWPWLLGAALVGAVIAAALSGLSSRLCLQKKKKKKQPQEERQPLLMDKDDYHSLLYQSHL
Protocol: After measuring the inhibition of melanin production by matrine and oxymatrine using B16 mouse melanoma cells (Korean Cell Line Bank), the measurement was compared with that for the inhibition of intracellular tyrosinase activities by arbutin, known as a melanin production inhibitor.
Murine melanoma (B-16 F1) cells were seeded into each well of a 6-well plate (1×10^5 cells/well) in DMEM containing 10% FBS (fetal bovine serum) and the cells were cultured to about more than 80% adherence by incubating in a CO2 incubator under conditions of 37° C. and 5.0% CO2. After cultivation, the medium was removed and samples were replaced in medium diluted at suitable concentration, followed by incubating for 3 days under conditions of 37° C. and 5.0% CO2. […] The cells removing medium were washed with PBS (phosphate buffer saline) and treated with trypsin to collect cells. Number of the collected cells was calculated using hematocytometer, centrifuged at 5,000 to 10,000 rpm for 10 min and the supernatant was eliminated, thereby obtaining pellets. This cell pellets were lysated using lysis buffer, centrifuged at 12,000 rpm for 10 min and the supernatant was collected. Then, the cell solution was measured for absorbance at 492 nm using microplate reader and the activity of tyrosinase per cell constant number was estimated.

Human fibroblasts = assay: Cytotoxicity to fibroblasts (MIT reagent, absorbance 540 nm); format: cell-based; conditions: 1 μM, 10 μM and 50 μM; compared to RA (retinoic acid); FIG. 1
Protocol: Human fibroblasts (commercially available from pacific) were seeded into a 6-well plate (2×10^5 cells/well) and the well plate was incubated in a 5% CO2 incubator for 24 hr at 37° C. After 24 hr, the medium in each well was removed and samples were treated with various concentrations, followed by incubating again for 24 hr. Following incubation, the cell medium was collected and was used as samples. To measure cytotoxicity of samples to fibroblasts, MIT reagent (1 mg/ml) was added to each well in 1/10 fold volume of the remaining medium, incubated for 3 hr and the medium was eliminated. The medium was dissolved in DMSO and its absorbance at 540 nm was measured.

B16 mouse melanoma cells [2] = assay: Inhibition of melanin production in melanoma cells; format: cell-based; conditions: 72 h, read-out: Inhibitory rate of melanin production (%)
Protocol: After measuring the inhibition of melanin production by matrine and oxymatrine using B16 mouse melanoma cells (Korean Cell Line Bank), the measurement was compared with that for the inhibition of melanin production by arbutin, known as a melanin production inhibitor.
B16 mouse melanoma cells F10 (Korean Cell Line Bank) were seeded into each well of a 6-well plate (1×10^5 cells/well) in DMEM (Dulbecco's modified Eagle's media) containing 10% FBS (fetal bovine serum) and the cells were cultured to about more than 80% confluence by incubating in a CO2 incubator under conditions of 37° C. and 5.0% CO2. After cultivation, the medium was removed and samples were replaced in medium diluted at suitable concentration, followed by incubating for 3 days under conditions of 37° C. and 5.0% CO2. […] The cells removing medium were washed with PBS (phosphate buffer saline) and treated with trypsin to collect cells. Number of the collected cells was calculated using hematocytometer (Tiefe Depth Profondeur 0.100 mm, Paul Marienfeld GmbH & Co. KG, D.E), centrifuged at 5,000 to 10,000 rpm for 10 min and the supernatant was eliminated, thereby obtaining pellets. This cell pellets were dried at 60° C., 100 μl of 1M NaOH containing 10% DMSO was added to thereto, and intracellular melanin was obtained in incubator at 60° C. Then, the cell solution was measured for absorbance at 490 nm using microplate reader (Bio-Tek ELx8081U, U.S) and the amount of melanin per cell constant number was estimated.

[3] = Anti-oxidation: removal of superoxide anion generated by xanthine oxidase (SOD Assay Kit-WST); format: biochemical
Protocol: This experiment evaluates anti-oxidation activity of sample by observing removal of superoxide anion generated by xanthine oxidase. The experiment was performed using the kit (SOD Assay Kit-WST) purchased from Dojindo (JP) in accordance with manufacture's protocol.

Interleukin-2 promoter = assay: Interleukin-2 luciferase reporter activity in PHA-activated Jurkat cells; format: cell-based, Human; conditions: PHA alone = 100
Protocol: Interleukin-2 promoter was reported to play an important role in the generation of cytokine related to inflammatory. The activity of interleukin-2 luciferase was measured using the following method: […] Following 24 hr, the cell was collected and the luciferase activity was measured using luminometer (Berthold Technologies GmbH&Co.KG, Germany).

With `O=C1CCC[C@@H]2[C@H]3CCCN4CCC[C@@H](CN12)[C@@H]34` [Matrine, matrine] the cytotoxicity (B16 mouse melanoma cells [1]) was “did not show cytotoxicity”, the inhibition at 10 µM (tyrosinase) was 13% and the inhibition at 100 µM (tyrosinase) was 32%. For the same compound, the inhibition at 500 µM (tyrosinase) was 37%, the “cytotoxicity against human fibroblasts compared to RA” value (Human fibroblasts) was “lower cytotoxicity” and the inhibition at 10 µM (B16 mouse melanoma cells [2]) was 11%. For the same compound, the inhibition at 100 µM (B16 mouse melanoma cells [2]) was 31%, the inhibition at 500 µM (B16 mouse melanoma cells [2]) was 39% and the “Removal rate of superoxide anion (%)” value ([3]; 10 μM) was 6%. For the same compound, the “Removal rate of superoxide anion (%)” value ([3]; 100 μM) was 12%, the “Removal rate of superoxide anion (%)” value ([3]; 500 μM) was 24% and the IL-2 luciferase activities (Interleukin-2 promoter; 10 uM with PHA (100 ng/ml)) was 92. The IL-2 luciferase activities (Interleukin-2 promoter; 100 uM with PHA (100 ng/ml)) was 77 and the IL-2 luciferase activities (Interleukin-2 promoter; 500 uM with PHA (100 ng/ml)) was 68.

Work on `O=C1CCC[C@@H]2[C@H]3CCC[N+]4([O-])CCC[C@@H](CN12)[C@@H]34` (some centres unmarked) [Oxymatrine, oxymatrine] yielded an inhibition at 10 µM (tyrosinase) of 11%, an inhibition at 100 µM (tyrosinase) of 29% and an inhibition at 500 µM (tyrosinase) of 34%. For the same compound, the inhibition at 10 µM (B16 mouse melanoma cells [2]; 10 μM, 3 days) was 13%, the inhibition at 100 µM (B16 mouse melanoma cells [2]; 100 μM, 3 days) was 27% and the inhibition at 500 µM (B16 mouse melanoma cells [2]; 500 μM, 3 days) was 31%. For the same compound, the “Removal rate of superoxide anion (%)” value ([3]; 10 μM) was 4%, the “Removal rate of superoxide anion (%)” value ([3]; 100 μM) was 17% and the “Removal rate of superoxide anion (%)” value ([3]; 500 μM) was 32%. The IL-2 luciferase activities (Interleukin-2 promoter; 10 uM with PHA (100 ng/ml)) was 95, the IL-2 luciferase activities (Interleukin-2 promoter; 100 uM with PHA (100 ng/ml)) was 78 and the IL-2 luciferase activities (Interleukin-2 promoter; 500 uM with PHA (100 ng/ml)) was 62.
